pEC50: −log10 of the molar value.
Columns and labels:
[1] = biological target: T1, APOL1 G2 (Homo sapiens, UniProt O14791, DEL388-389); test: APOL1-mediated calcium transport (calcium influx) assay, HEK T-REx/GCaMP6f/APOL1 G2 K6.3 cells, FLIPR TETRA; type: cell-based; conditions: prevention of calcium influx; geometric mean of at least 2 assay runs; † = average of a technical replicate from a single assay run
T1 construct: expressed in transfected cells; host or cells: HEK293 T-REx clonal line stably expressing GCaMP6f (HEK T-REx/GCaMP6f/APOL1 G2 K6.3), doxycycline induced
T1 sequence (O14791 with tags, fused parts or gaps DEL388-389): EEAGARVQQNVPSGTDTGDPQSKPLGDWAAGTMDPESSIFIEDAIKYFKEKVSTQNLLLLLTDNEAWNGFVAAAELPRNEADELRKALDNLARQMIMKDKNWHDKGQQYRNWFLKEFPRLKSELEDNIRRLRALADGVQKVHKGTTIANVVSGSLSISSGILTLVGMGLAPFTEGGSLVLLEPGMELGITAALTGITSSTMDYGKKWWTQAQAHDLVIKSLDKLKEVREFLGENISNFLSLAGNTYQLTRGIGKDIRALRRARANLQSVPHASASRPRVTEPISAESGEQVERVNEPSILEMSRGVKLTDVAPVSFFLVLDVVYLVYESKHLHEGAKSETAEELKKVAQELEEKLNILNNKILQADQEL
In short: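 A HEK293 T-REx clone stably expressing GCaMP6f had APOL1 G2 induced with doxycycline (20 ng/mL solution added) for 6 h. Cells were then washed into Ca2+-free Tyrode's buffer (pH 7.4) and preincubated with compounds (duplicate 8-point) for 10 min at room temperature. Ca2+ injection to 5 mM final produced FLIPR GCaMP fluorescence, giving AC50 for influx inhibition (geometric mean, ≥2 runs).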

[2] = test system: HEK293 cells overexpressing APOL1 G2; test: APOL1 G2 HEK293 cell rescue assay (reversal of cell death caused by overexpression of APOL1); type: cell-based; conditions: Homo sapiens, HEK293, HEK293 overexpressing APOL1 G2; geometric mean of at least 2 assay runs; † = single assay run
In short: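 EC50 is the half-maximal effective concentration for reversing cell death driven by APOL1 G2 overexpression in HEK293 cells. Reported as geometric mean of at least 2 runs on separate days, each run averaging duplicate wells per plate; some values from a single run.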

CS(=O)(=O)c1ccc(OCCN2CCC3(CC2)C(=O)Nc2ccc(Cl)cc23)cn1 [Compound 64, 5-chloro-1′-{2-[(6-methanesulfonylpyridin-3-yl)oxy]ethyl}-1,2-dihydrospiro[indole-3,4′-piperidin]-2-one]
AC50 [1]: 0.455 µM
pEC50 [2]: 6.79

CN1C(=O)Cc2cc(OCCN3CCC4(CC3)C(=O)Nc3ccc(Cl)cc34)ccc21 [Compound 65, 5-chloro-1′-{2-[(1-methyl-2-oxo-2,3-dihydro-1H-indol-5-yl)oxy]ethyl}-1,2-dihydrospiro[indole-3,4′-piperidin]-2-one]
AC50 [1]: 0.639 µM
pEC50 [2]: 7.06

Cc1ccc2c(c1)C1(CCN(CCOc3ccc(S(C)(=O)=O)cc3)CC1)C(=O)N2 [Compound 66, 1′-[2-(4-methanesulfonylphenoxy)ethyl]-5-methyl-1,2-dihydrospiro[indole-3,4′-piperidin]-2-one]
AC50 [1]: 0.461 µM
pEC50 [2]: 6.97

Cn1ncc2cc(OCCN3CCC4(CC3)C(=O)Nc3ccc(Cl)cc34)ccc21 [Compound 68, 5-chloro-1′-{2-[(1-methyl-1H-indazol-5-yl)oxy]ethyl}-1,2-dihydrospiro[indole-3,4′-piperidin]-2-one]
AC50 [1]: < 0.249 µM
pEC50 [2]: 6.83

CS(=O)(=O)c1ccc(OCCN2CCC3(CC2)C(=O)Nc2ccc(Cl)cc23)cc1 [Compound 69, 5-chloro-1′-[2-(4-methanesulfonylphenoxy)ethyl]-1,2-dihydrospiro[indole-3,4′-piperidin]-2-one]
AC50 [1]: 0.216 µM
pEC50 [2]: 7.08

Cn1ncc2cc(OCCN3CCC4(CC3)C(=O)Nc3ccccc34)ccc21 [Compound 70, 1′-{2-[(1-methyl-1H-indazol-5-yl)oxy]ethyl}-1,2-dihydrospiro[indole-3,4′-piperidin]-2-one]
AC50 [1]: 0.124 µM
pEC50 [2]: 5.98

CS(=O)(=O)c1ccc(OCCN2CCC3(CC2)C(=O)Nc2ccc(C#N)cc23)cc1 [Compound 71, 1′-[2-(4-methanesulfonylphenoxy)ethyl]-2-oxo-1,2-dihydrospiro[indole-3,4′-piperidine]-5-carbonitrile]
AC50 [1]: 0.626 µM
pEC50 [2]: 6.46

CS(=O)(=O)c1ccc(OCCN2CCC3(CC2)C(=O)Nc2ccc(Br)cc23)cc1 [Compound 72, 5-bromo-1′-[2-(4-methanesulfonylphenoxy)ethyl]-1,2-dihydrospiro[indole-3,4′-piperidin]-2-one]
AC50 [1]: 0.252 µM
pEC50 [2]: 7.44

CN(c1ccc(OCCN2CCC3(CC2)C(=O)Nc2ccc(C#N)cc23)cc1)S(C)(=O)=O [Compound 75, N-[4-(2-{5-cyano-2-oxo-1,2-dihydrospiro[indole-3,4′-piperidin]-1′-yl}ethoxy)phenyl]-N-methylmethanesulfonamide]
AC50 [1]: 0.689 µM
pEC50 [2]: 6.94

CN(c1ccc(OCCN2CCC3(CC2)C(=O)Nc2ccc(Cl)cc23)cc1)S(C)(=O)=O [Compound 76, N-[4-(2-{5-chloro-2-oxo-1,2-dihydrospiro[indole-3,4′-piperidin]-1′-yl}ethoxy)phenyl]-N-methylmethanesulfonamide]
AC50 [1]: 0.678 µM
pEC50 [2]: 7.32

CS(C)(=O)=Nc1ccc(OCCN2CCC3(CC2)C(=O)Nc2ccc(C#N)cc23)cc1 [Compound 77, 1′-[2-(4-{[dimethyl(oxo)-λ^6-sulfanylidene]amino}phenoxy)ethyl]-2-oxo-1,2-dihydrospiro[indole-3,4′-piperidine]-5-carbonitrile]
AC50 [1]: 1.6 µM
pEC50 [2]: 5.65

CN1C(=O)CCc2cc(OCCN3CCC4(CC3)C(=O)Nc3ccc(Cl)cc34)cnc21 [Compound 78, 5-chloro-1′-{2-[(8-methyl-7-oxo-5,6,7,8-tetrahydro-1,8-naphthyridin-3-yl)oxy]ethyl}-1,2-dihydrospiro[indole-3,4′-piperidin]-2-one]
AC50 [1]: 0.522 µM
pEC50 [2]: 7.39

CN1C(=O)CCc2cc(OCCN3CCC4(CC3)C(=O)Nc3ccc(C#N)cc34)cnc21 [Compound 79, 1′-{2-[(8-methyl-7-oxo-5,6,7,8-tetrahydro-1,8-naphthyridin-3-yl)oxy]ethyl}-2-oxo-1,2-dihydrospiro[indole-3,4′-piperidine]-5-carbonitrile]
AC50 [1]: 0.687 µM
pEC50 [2]: 6.68

CC(C)[C@]1(O)C[C@@H](N2C(=O)CCc3cc(OCCN4CCC5(CC4)C(=O)Nc4ccc(Cl)cc45)cnc32)C1 [Compound 317, 5-chloro-1′-[2-({7-oxo-8-[(cis)-3-hydroxy-3-(propan-2-yl)cyclobutyl]-5,6,7,8-tetrahydro-1,8-naphthyridin-3-yl}oxy)ethyl]-1,2-dihydrospiro[indole-3,4′-piperidin]-2-one]
AC50 [1]: 0.792 µM
pEC50 [2]: 7.62

C[C@]1(O)C[C@@H](n2c(=O)ccc3cc(OCCN4CCC5(CC4)C(=O)Nc4ccc(Cl)cc45)cnc32)C1 [Compound 323, 5-chloro-1′-[2-({7-oxo-8-[(cis)-3-hydroxy-3-methylcyclobutyl]-7,8-dihydro-1,8-naphthyridin-3-yl}oxy)ethyl]-1,2-dihydrospiro[indole-3,4′-piperidin]-2-one]
AC50 [1]: 0.4 µM
pEC50 [2]: 7.76

C[C@]1(O)C[C@@H](n2c(=O)ccc3cc(OCCN4CCC5(CC4)C(=O)Nc4ccc(C(F)F)cc45)cnc32)C1 [Compound 324, 5-(difluoromethyl)-1′-[2-({7-oxo-8-[(cis)-3-hydroxy-3-methylcyclobutyl]-7,8-dihydro-1,8-naphthyridin-3-yl}oxy)ethyl]-1,2-dihydrospiro[indole-3,4′-piperidin]-2-one]
AC50 [1]: 0.942 µM
pEC50 [2]: 7.59

O=C1CCc2cc(OCCN3CCC4(CC3)C(=O)Nc3ccc(Cl)cc34)cnc2N1C1CC(CO)C1 (stereo not drawn) [Compound 326, 5-chloro-1′-[2-({8-[3-(hydroxymethyl)cyclobutyl]-7-oxo-5,6,7,8-tetrahydro-1,8-naphthyridin-3-yl}oxy)ethyl]-1,2-dihydrospiro[indole-3,4′-piperidin]-2-one]
AC50 [1]: 0.68 µM
pEC50 [2]: 7.51

CC1(O)CC(CN2C(=O)CCc3cc(OCCN4CCC5(CC4)C(=O)Nc4ccc(Cl)cc45)cnc32)C1 (stereo not drawn) [Compound 327, 5-chloro-1′-[2-({8-[(3-hydroxy-3-methylcyclobutyl)methyl]-7-oxo-5,6,7,8-tetrahydro-1,8-naphthyridin-3-yl}oxy)ethyl]-1,2-dihydrospiro[indole-3,4′-piperidin]-2-one]
AC50 [1]: 0.452 µM
pEC50 [2]: 7.54

C[C@]1(O)C[C@@H](n2c(=O)ccc3cc(OCCN4CCC5(CC4)C(=O)Nc4ccc(OC(F)F)cc45)cnc32)C1 [Compound 328, 5-(difluoromethoxy)-1′-[2-({7-oxo-8-[(cis)-3-hydroxy-3-methylcyclobutyl]-7,8-dihydro-1,8-naphthyridin-3-yl}oxy)ethyl]-1,2-dihydrospiro[indole-3,4′-piperidin]-2-one]
AC50 [1]: 0.748 µM
pEC50 [2]: 7.47

O=C1Nc2ccc(Cl)cc2C12CCN(CCOc1cnc(C3(CO)CC3)nc1)CC2 [Compound 333, 5-chloro-1′-[2-({2-[1-(hydroxymethyl)cyclopropyl]pyrimidin-5-yl}oxy)ethyl]-1,2-dihydrospiro[indole-3,4′-piperidin]-2-one]
AC50 [1]: 0.486 µM
pEC50 [2]: 7.37

CC(C)(CO)c1ncc(OCCN2CCC3(CC2)C(=O)Nc2ccc(Cl)cc23)cn1 [Compound 334, 5-chloro-1′-(2-{[2-(1-hydroxy-2-methylpropan-2-yl)pyrimidin-5-yl]oxy}ethyl)-1,2-dihydrospiro[indole-3,4′-piperidin]-2-one]
AC50 [1]: 2 µM
pEC50 [2]: 6.96

From patent US12344610B2, “APOL1 inhibitors and methods of use” (Maze Therapeutics, Inc., priority 2022, dated 2025)
